By IC50 is commonly meant the concentration that inhibits the measured activity by half. A lower IC50 goes with inhibition by little substance.

The test system of data set [1] is A2780cis ovarian cancer cells. The experiment in a line: MTT cytotoxicity assay, A2780cis. Conditions: 24 h treatment, cisplatin-resistant A2780cis. Type of data set: cell-based, human. On the procedure:
(§1) Cytotoxicity profiles of FALP derivatives with various head groups . The in vitro anticancer activity of the Pt(IV) prodrugs (1–9) was assessed using the 3-(4,5-dimethylthiazol-2-yl)-2,5-diphenyltetrazolium bromide (MTT) assay. This study utilized two human cancer cell lines, namely A2780cis and MDA-MB-231. A2780cis is an ovarian cancer cell line known for its resistance to conventional platinum chemotherapy, making it a formidable challenge to treat. On the other hand, MDA-MB-231 represents a triple-negative breast cancer cell line, which is currently recognized as one of the difficult-to-treat cancer types. The cells were treated with 1–9 or cisplatin for 24 h, and the cell viability was evaluated. The IC50 values, which represent the concentration of the drug required to inhibit the growth of cells by 50%, are reported in the table in Figure 1B. […] Overall, the head group modifications of FALPs result in an alternation of therapeutic effects, which is a promising way to fine-tune the anticancer activity of this class of metallodrugs.
(§2) Cell culture. A2780cis cell lines were purchased from Sigma-Aldrich and cultured in RPMI 1640 with L-glutamine (Corning, New York, NY, USA) supplemented with 10% FBS (Atlanta Biologicals, USA) and 1% penicillin-streptomycin (Corning). The MDA-MB-231 cell line was obtained via American Type Culture Collection, and cultured in DMEM 1 g/L glucose, with L-glutamine and sodium pyruvate (Corning) supplemented with 10% FBS and 1% penicillin-streptomycin (Corning). All cell lines were cultured at 37 °C under an atmosphere containing 5% CO2. Cells were passaged upon reaching 80–90% confluence via trypsinization and split in a 1:5 ratio.
(§3) MTT assays. Cytotoxicity profiles of compounds 1–9 and cisplatin against different cell lines (A2780cis and MDA-MB-231) were evaluated using the MTT assays. A volume of 100 μL of a RPMI or DMEM containing 8 × 10^4 cells/mL was seeded in 96-well plates. The plates were incubated for 24 h at 37 °C with 5% CO2 to allow for adherence of cells. A volume of 50 μL of RPMI or DMEM with various concentrations of cisplatin or compounds 1–9 were added to each well of the microplates. The Pt concentrations were determined via GFAAS. After 24 h, a volume of 30 μL of MTT (5.0 mg/mL in PBS, Alfa Aesar, Haverhill, MA, USA) was added to each well of the microplates. After 24 h, the medium was aspirated, and 200 μL of DMSO was added to each well. The plates were shaken gently on a shaker at r.t. for 10 min. Then, the absorbance of purple formazan was recorded at 562 nm with a BioTek ELx800 plate reader. IC50 values were determined using Origin software v7.0. All experiments were performed in triplicate.

The test system of data set [2] is MDA-MB-231 breast cancer cells. The experiment in a line: MTT cytotoxicity assay, MDA-MB-231. Type of data set: cell-based, human. Conditions: 24 h treatment, triple-negative MDA-MB-231. On the procedure: as §1, §2, §3
A general note: Tetrazolium assays rely on reduction of a dye to a coloured formazan, in cell work by metabolically active cells.

The subject of data set [3] is A2780cis cells. The experiment in a line: GFAAS analysis of cellular platinum contents. Type of data set: cell-based, human. Conditions: [Pt] = 1 μM, 24 h. The source says: (§4) Cell entry and mitochondrial accumulation of FALP derivatives with head groups of different hydrophobicities. Our next objective was to gain a more detailed understanding of how modifications to the head group of FALPs affect their anticancer activities through hydrophobicity. Cellular uptake is widely recognized as a critical factor in the activity of metallodrugs. The influence of hydrophobicity on the cellular uptake of therapeutic molecules has been widely acknowledged, with an increase in hydrophobicity typically promoting cell entry. To this end, we conducted a graphite furnace atomic absorption spectroscopic (GFAAS) analysis of the cellular uptake for FALPs with various head group modifications, including 2 and 7. […] We previously discovered that mitochondria play significant roles in the mechanism of action of FALPs, so we further investigated how the hydrophobicity of the head group modifications affects the mitochondrial accumulation of FALPs. […] In summary, the introduction of a hydrophilic head group in FALPs promotes cell entry and mitochondrial accumulation.
GFAAS analysis of cellular platinum contents in A2780cis cells. […] The remaining live cells were harvested via trypsinization and counted. […] The Pt contents in the cells were analyzed via GFAAS. […]

Data set [4] has as its system mitochondria of A2780cis cells. The experiment in a line: Measurement of mitochondrial platinum contents. The format is cell-based, human. Conditions: [Pt] = 1 μM, 24 h, isolated mitochondria, GFAAS.
Description: as §4
Measurements of mitochondrial platinum contents in A2780cis cells. […] Next, the wells were washed with PBS (1 mL) and harvested via trypsinization (1 mL) and counted. […] Next, the fractions were diluted 4× in water and the platinum content was analyzed using GFAAS. […]

A short description of data set [5]: GFAAS analysis of Log P values (H2O:octanol). Conditions: H2O:octanol 1:1, Pt content of each phase by GFAAS; whole compound. The format is physicochemical. The protocol:
The samples were first dissolved with DMSO to create 200 µM stocks. From these stocks, 50 µL was added to a H2O:Octanol mixture with a 1:1 volume ratio. This mixture was vortexed for 5 min and subsequently centrifuged for 3 min at 3000 rpm. Following centrifugation, the H2O and octanol layers were isolated for analysis. The Pt content in each phase was quantified using GFAAS to calculate the Log P value.

For data set [6], the system named is A2780cis cells. In words: Flow cytometric analysis of apoptosis (Annexin V/PI). The format is cell-based, human. Conditions: [Pt] = 0.5 μM, 48 h. The protocol:
(§5) Cellular Responses of FALP derivatives with head groups of different hydrophobicity. Based on the observation that hydrophilic head group modifications lead to increased intracellular Pt levels, we formulated the hypothesis that such modifications would result in greater mitochondrial and DNA damage, as well as increased apoptosis. MitoSOX was utilized to assess the levels of mitochondrial ROS, while the γH2AX levels were analyzed to determine DNA damage. As mitochondrial and DNA damage are known to promote apoptosis, Annexin V/PI assays were also conducted to examine the apoptotic effects. A flow cytometric analysis was used to evaluate the mitochondrial ROS, γH2AX, and apoptosis in the cancer cells treated with FALPs (2 and 7) in the experiments. […] Based on the results, it can be inferred that the FALP derivative (2) with a hydrophilic head group modification induces mitochondrial and DNA damage as well as apoptosis more effectively than the one (7) with a hydrophobic modification.
Flow cytometric analysis of apoptosis. A2780cis cells were seeded in a 6-well plate at a concentration of 3 × 10^5 cells/well. Cells were then incubated at 37 °C 5% CO2 for 24 h. […] Both live and dead cells were collected, resuspended in 1mL PBS, and counted. […] Cells were then analyzed with FL-1 and FL-3 channels on a BD Accuri C6 flow cytometer and data were processed with FlowJo.
On the technique in general: Flow cytometry measures light scatter and fluorescence of single cells or particles in a stream.

Data set [7] has as its system A2780cis cells. The experiment in a line: LIVE/DEAD cell viability imaging assay. The format is cell-based, human. Conditions: [Pt] = 1 μM, 24 h.
Description: LIVE/DEAD cell viability assays. […] Before the assay, the cells were washed with 1 mL PBS and 1 mL dye-free RPMI to remove serum esterase activity that is generally present in serum-supplemented growth media. A 100 μL volume of LIVE/DEAD working solution (formed by mixing 2 µM of calcein AM and 2 μM ethidium homodimer-1 in PBS) was carefully added to the disk, which was then incubated at r.t. for 30 min. Images were acquired using an Olympus IX70 inverted epifluorescence microscope equipped with a digital CCD camera (QImaging, Surrey, BC, Canada). Images were processed, and intensities were quantified with ImageJ software (NIH).
The subject of data set [8] is mitochondrial ROS in A2780cis cells. In words: Flow cytometric analysis of MitoSOX (mitochondrial ROS). The format is cell-based, human. Conditions: [Pt] = 10 μM, 24 h, control 41.1%. The protocol: as §5
Flow cytometric analysis of MitoSOX. A2780cis cells were seeded in 6-well plate at a concentration of 6 × 10^4 cells/mL and incubated overnight. […] The cells were then re-suspended in PBS with 0.5% BSA to reach 10^6 cells/mL and analyzed with BD Accuri C6 flow cytometer using FL-2 channel, and data were processed with FlowJo v10.

Molecules are shown by their SMILES.

As for `CCCCCCCCCCCCCCCCNC(=O)CCC(=O)[O][Pt]([NH2])([NH2])([Cl])([Cl])[O]C(=O)NCC(=O)OCC` [Compound 9], the IC50 in data set [1] turned out to be 0.4 ± 0.01 µM; in data set [2], 1.42 ± 0.07 µM.

On to `CCCCCCCCCCCCCCCCNC(=O)[O][Pt]([NH2])([NH2])([Cl])([Cl])[O]C(=O)CCC(=O)NCCOC` [Compound 3], for which the IC50 was 0.7 ± 0.04 µM in data set [1] and 1.9 ± 0.3 µM in data set [2].

On to `CCCCCCCCCCCCCCCCNC(=O)[O][Pt]([NH2])([NH2])([Cl])([Cl])[O]C(=O)CCC(=O)NC12CC3CC(CC(C3)C1)C2` [Compound 8], for which the IC50 stood at 5.07 ± 0.71 µM in data set [1] and 6.09 ± 0.3 µM in data set [2].

As for `CCCCCCCCCCCCCCCCNC(=O)[O][Pt]([NH2])([NH2])([Cl])([Cl])[O]C(=O)CCC(=O)NCCCCCC` [Compound 7], the “Cellular uptake (cellular Pt content)” value in the data set on A2780cis cells [3] is given as 60.03 ± 8.01 pmol Pt/million cells. Moreover, the IC50 in data set [1] was 3.75 ± 0.47 µM; in data set [2] it was 7.05 ± 0.8 µM. Besides, the “Mitochondrial Pt content” value in data set [4] is reported as 11.72 ± 2.76 pmol Pt/million cells. The “Log P determined via GFAAS” value in data set [5] is on record as 2.57. In addition, in the data set with A2780cis cells [6], the “Apoptosis, Annexin V/PI plot, upper right quadrant (late stages of apoptosis)” value stood at 3.58%. For the same compound, the “Live/dead cell imaging result” value with A2780cis cells [7] was “ineffective”.

Take `CCCCCCCCCCCCCCCCNC(=O)[O][Pt]([NH2])([NH2])([Cl])([Cl])[O]C(=O)CCC(=O)NCC#N` [Compound 4]: the results for the IC50 in data set [1] and in data set [2] were 0.41 ± 0.05 µM and 1.63 ± 0.12 µM, respectively.

With `CCCCCCCCCCCCCCCCNC(=O)[O][Pt]([NH2])([NH2])([Cl])([Cl])[O]C(=O)CCC(=O)NCC(=O)OCC` [Compound 5], the IC50 was found to be 0.39 ± 0.08 µM in data set [1] and 5.22 ± 1.03 µM in data set [2].

As for `CCCCCCCCCCCCCCCCNC(=O)[O][Pt]([NH2])([NH2])([Cl])([Cl])[O]C(=O)CCC(=O)NCCOCCO` [Compound 2], the “Cellular uptake (cellular Pt content)” value in the data set on A2780cis cells [3] worked out at 496.6 ± 16.09 pmol Pt/million cells. In addition, the IC50 amounted to 0.3 ± 0.06 µM in data set [1] and 0.76 ± 0.03 µM in data set [2]. For the same compound, in data set [4], the “Mitochondrial Pt content” value is reported as 31.7 ± 5.1 pmol Pt/million cells. For the same compound, the “Log P determined via GFAAS” value in data set [5] came out at 1.97. For the same compound, the “Apoptosis, Annexin V/PI plot, upper right quadrant (late stages of apoptosis)” value with A2780cis cells [6] is 23.3%. The “Live/dead cell imaging result” value with A2780cis cells [7] is “effectively eliminated all drug-resistant A2780cis ovarian cancer cells”.

Regarding `CCCCCCCCCCCCCCCCNC(=O)[O][Pt]([NH2])([NH2])([Cl])([Cl])[O]C(=O)CCC(=O)NCCC` [Compound 6], the IC50 in data set [1] came out at 1.12 ± 0.07 µM; in data set [2], 1.5 ± 0.4 µM.

`N.N.[Cl][Pt][Cl]` [Cisplatin, cisplatin, reference compound]: the IC50 came to 109 ± 13.5 µM in data set [1] and 92 ± 8 µM in data set [2]. In data set [8], the “MitoSOX (mitochondrial ROS, flow cytometry)” value was “insignificant change”.

As for `CCCCCCCCCCCCCCCCNC(=O)[O][Pt]([Cl])([Cl])[O]C(=O)CCC(=O)O.N.N` [Compound 1], the values for the IC50 in data set [1] and in data set [2] were 1 ± 0.06 µM and 6.3 ± 0.4 µM, respectively.

The record behind these values is article PMC10487970, “Exploring the Impact of Head Group Modifications on the Anticancer Activities of Fatty-Acid-like Platinum(IV) Prodrugs: A Structure–Activity Relationship Study” (International Journal of Molecular Sciences, 2023).
